In ChEMBL document CHEMBL1201862, “PubChem BioAssay data set” (2004):
Activity calls are given as the source filed them.

Tests used:
[1] = target: Luciferin 4-monooxygenase (Photinus pyralis, UniProt P08659); experiment: firefly luciferase enzyme inhibitors, dose response, biochemical, luminescence (AID 1891)
[2] = Luminescence Cell-Based Dose Confirmation HTS to Identify Inhibitors of Platelet Dense Granule Release. [Related pubchem assays: 1663 (Primary HTS), 1678 (Summary of Project)]; assay type: functional
cells = assay type: functional
[3] = target: FAD-linked sulfhydryl oxidase ALR (Homo sapiens, UniProt P55789); experiment: inhibitors of human ALR sulfhydryl oxidase, dose response, biochemical, H2O2 detection, luminescence, cherry-pick (AID 493248)
[4] = inhibitors of intracellular T. cruzi replication, confirmation, NIH3T3 host cells, beta-gal luminescence (AID 2044); assay type: functional, cell-based;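 also: intracellular parasites grown in NIH/3T3 mouse fibroblasts as host cells; luminescent beta-galactosidase reporter signal from transgenic T. cruzi replicating inside host cells; inhibitors lower the luminescence signal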
[5] = cytotoxicity toward NIH3T3 fibroblasts, dose response, counter-screen, cell-based, ATP luminescence, mouse fibroblasts (AID 2010); assay type: functional;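 also: cells exposed to compound for about 90 hours before reading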
Cytochrome P450 3A4 = Cytochrome P450 3A4 (Homo sapiens, UniProt P08684); conditions: Potency;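 also: confirmatory qHTS run detecting inhibitors and substrates of CYP3A4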
[6] = target: T1, Ubiquitin-conjugating enzyme E2 N (Homo sapiens, UniProt P61088); assay type: functional;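 also: Dose-response confirmation in a TR-FRET assay detecting UBC13-driven polyubiquitin chain formation, inhibition measured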
T1 sequence (P61088 whole entry): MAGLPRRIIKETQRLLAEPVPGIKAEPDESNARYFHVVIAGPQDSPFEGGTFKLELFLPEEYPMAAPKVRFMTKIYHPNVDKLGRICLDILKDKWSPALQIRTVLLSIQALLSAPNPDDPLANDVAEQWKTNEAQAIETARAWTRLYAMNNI

[7] = intracellular Trypanosoma cruzi inhibitors in host cells – cell-based, plate reader, cherry-pick samples, set 3, dose response (AID 651818); assay type: functional;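 also: compounds incubated with infected cells for about four days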
[8] = target: T2, Corticotropin-releasing factor receptor 2/Corticotropin-releasing factor-binding protein (Homo sapiens, UniProt P24387+Q13324); experiment: Dose Response confirmation of uHTS hits for small molecule antagonists of the CRF-binding protein and CRF-R2 receptor complex.; assay type: functional; conditions: read-out: IC50_Mean
T2 sequence (Q13324 whole entry): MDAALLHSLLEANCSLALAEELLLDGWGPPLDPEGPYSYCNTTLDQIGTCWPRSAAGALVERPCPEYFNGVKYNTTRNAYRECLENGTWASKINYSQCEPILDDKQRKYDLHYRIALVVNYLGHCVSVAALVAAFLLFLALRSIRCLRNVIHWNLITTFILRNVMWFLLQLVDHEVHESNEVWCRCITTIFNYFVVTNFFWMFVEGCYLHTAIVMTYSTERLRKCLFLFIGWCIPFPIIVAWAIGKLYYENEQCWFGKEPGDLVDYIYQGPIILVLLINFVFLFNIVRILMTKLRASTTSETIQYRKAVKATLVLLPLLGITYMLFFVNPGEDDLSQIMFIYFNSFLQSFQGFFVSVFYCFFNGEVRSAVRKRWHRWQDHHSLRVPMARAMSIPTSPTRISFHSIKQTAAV
T2 sequence (P24387 whole entry): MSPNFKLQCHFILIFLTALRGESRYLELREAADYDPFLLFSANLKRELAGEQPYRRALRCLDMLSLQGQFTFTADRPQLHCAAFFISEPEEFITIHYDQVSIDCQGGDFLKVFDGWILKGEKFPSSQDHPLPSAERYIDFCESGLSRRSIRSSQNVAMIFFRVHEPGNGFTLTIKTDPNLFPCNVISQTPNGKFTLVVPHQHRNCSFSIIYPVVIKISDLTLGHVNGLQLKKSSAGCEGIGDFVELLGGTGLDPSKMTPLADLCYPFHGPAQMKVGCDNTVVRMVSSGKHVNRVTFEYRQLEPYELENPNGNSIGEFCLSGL

[9] = target: T2, Corticotropin-releasing factor receptor 2/Corticotropin-releasing factor-binding protein; experiment: activators of CRF receptor 2 with binding protein – uHTS hits, confirmation (AID 602473); assay type: functional; conditions: read-out: EC50_Mean
[10] = cytotoxicity in OVCAR8 ovarian cancer cells, dose response, PAX8 project, cell-based, plate reader, dry powder samples (AID 743197); assay type: functional; conditions: OVCAR-8
[11] = NIH:OVCAR-3 ovarian cancer cell cytotoxicity, dose response, PAX8 inhibitor project, plate reader, dry powder samples (AID 743044); assay type: functional, cell-based
Paired box protein Pax-8 = Paired box protein Pax-8 (Homo sapiens, UniProt Q06710); experiment: inhibitors of PAX8-driven TPO luciferase reporter, dose response, RMG-I cells, cherry-pick (AID 687027); assay type: functional, cell-based;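 also: luciferase reporter driven by Pax8 target thyroperoxidase promoter measured by SteadyGlo luminescence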
[12] = HepG2 cell cytotoxicity, dose response, cytotoxicity control, plate reader, cherry-pick, antagonist series (AID 743416); assay type: functional, cell-based
[13] = P. falciparum Dd2 growth inhibitors, dose response, SYBR Green, cherry-picked samples (AID 1159567); assay type: functional, cell-based

Chain of FAD-linked sulfhydryl oxidase ALR (P55789 whole entry): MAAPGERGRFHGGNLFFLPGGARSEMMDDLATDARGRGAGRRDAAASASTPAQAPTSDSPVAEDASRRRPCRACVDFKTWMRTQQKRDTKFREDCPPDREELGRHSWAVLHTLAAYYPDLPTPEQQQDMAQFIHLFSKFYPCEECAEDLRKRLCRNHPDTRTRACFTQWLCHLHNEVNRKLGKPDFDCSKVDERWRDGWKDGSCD
Chain of Luciferin 4-monooxygenase (P08659 whole entry): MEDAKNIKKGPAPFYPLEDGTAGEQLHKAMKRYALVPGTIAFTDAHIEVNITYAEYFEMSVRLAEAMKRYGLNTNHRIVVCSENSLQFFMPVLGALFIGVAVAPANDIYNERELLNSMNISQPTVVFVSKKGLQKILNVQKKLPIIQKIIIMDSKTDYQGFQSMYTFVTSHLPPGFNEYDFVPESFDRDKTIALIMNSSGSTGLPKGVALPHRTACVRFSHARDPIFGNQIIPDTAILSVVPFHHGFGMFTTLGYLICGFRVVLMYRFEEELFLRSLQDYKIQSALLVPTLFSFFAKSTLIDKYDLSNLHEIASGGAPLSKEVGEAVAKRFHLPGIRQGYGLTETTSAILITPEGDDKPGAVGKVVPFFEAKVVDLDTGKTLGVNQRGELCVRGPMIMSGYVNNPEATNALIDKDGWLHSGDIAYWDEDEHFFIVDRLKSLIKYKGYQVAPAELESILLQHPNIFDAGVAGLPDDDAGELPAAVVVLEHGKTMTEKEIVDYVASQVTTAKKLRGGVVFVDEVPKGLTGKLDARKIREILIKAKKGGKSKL
Chain of Cytochrome P450 3A4 (P08684 whole entry): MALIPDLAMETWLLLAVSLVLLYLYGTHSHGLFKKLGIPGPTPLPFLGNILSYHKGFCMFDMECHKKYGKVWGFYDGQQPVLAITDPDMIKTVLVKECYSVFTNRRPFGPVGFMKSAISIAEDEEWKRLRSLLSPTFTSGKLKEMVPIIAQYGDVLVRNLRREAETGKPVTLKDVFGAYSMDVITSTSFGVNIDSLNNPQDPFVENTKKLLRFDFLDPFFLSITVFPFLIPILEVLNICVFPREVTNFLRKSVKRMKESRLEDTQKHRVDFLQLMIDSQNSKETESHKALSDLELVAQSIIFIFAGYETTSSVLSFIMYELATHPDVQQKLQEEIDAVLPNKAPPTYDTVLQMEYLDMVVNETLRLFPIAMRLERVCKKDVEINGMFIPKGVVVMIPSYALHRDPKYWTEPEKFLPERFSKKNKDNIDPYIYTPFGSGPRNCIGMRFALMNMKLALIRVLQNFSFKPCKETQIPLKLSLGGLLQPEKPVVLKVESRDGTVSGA
Chain of Paired box protein Pax-8 (Q06710 whole entry): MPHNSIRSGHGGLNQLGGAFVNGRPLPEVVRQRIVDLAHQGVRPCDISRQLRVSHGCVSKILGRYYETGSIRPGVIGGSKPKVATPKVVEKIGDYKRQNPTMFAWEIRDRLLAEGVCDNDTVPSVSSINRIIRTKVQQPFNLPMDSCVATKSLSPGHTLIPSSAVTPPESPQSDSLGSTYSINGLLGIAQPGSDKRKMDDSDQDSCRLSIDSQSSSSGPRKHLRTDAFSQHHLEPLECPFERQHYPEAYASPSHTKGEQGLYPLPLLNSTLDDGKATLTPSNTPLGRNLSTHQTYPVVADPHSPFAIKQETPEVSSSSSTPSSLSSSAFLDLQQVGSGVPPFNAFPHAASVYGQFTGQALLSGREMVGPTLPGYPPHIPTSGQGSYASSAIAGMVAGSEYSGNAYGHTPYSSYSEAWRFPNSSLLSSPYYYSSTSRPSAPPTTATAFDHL

For `CN1CCN(S(=O)(=O)c2cccc([N+](=O)[O-])c2)CC1`, the EC50 [1] was > 112 µM (not active) and the EC50 [2] was > 112 µM (not active).

With `Cc1nnc(NC(=O)c2ccc3ccccc3c2)o1` the IC50 (cells) was 1.64 µM (active).

In the case of `COC(=O)c1c(C(=O)OC)c(-c2ccc(F)cc2)n2c1CSC2`, the AC50 [3] is reported as 0.218 µM (active).

For `CC(C)OC(=O)c1cc(C(=O)c2cc(Cl)ccc2O)coc1=N`, the IC50 (cells) was 23.2 µM (active).

In the case of `CN(C)c1ccc(CN(C(=O)c2ccccc2Br)C2CCS(=O)(=O)C2)cc1` (stereo unspecified), the AC50 [3] is reported as 1.88 µM (active).

For `c1ccc2cc(OCCCn3ccnc3)ccc2c1`, the EC50 [4] was 1.01 µM (active), the EC50 [5] was > 60 µM (not active) and the IC50 (cells) was 42.5 µM (active).

With `O=C(c1ccncc1)N1CCN(C(=O)c2cccc3ccccc23)CC1` the EC50 [1] was > 112 µM (not active) and the EC50 [2] was 16.6 µM (active).

For `CCC(Oc1cc(Cl)ccc1Cl)C(=O)NNC(=O)CCC(=O)O` (stereo unspecified), the EC50 [1] was > 112 µM (not active) and the EC50 [2] was > 112 µM (not active).

For `COc1cccc(CNC(=O)c2cc(S(=O)(=O)N3CCCC3)cn2C)c1`, the EC50 [1] was > 112 µM (not active) and the EC50 [2] was > 112 µM (not active).

For `COC(=O)[C@@H]1C[C@@]2(O)[C@H](O)[C@H](O)[C@H](O)C[C@H]2N1CC(c1ccccc1)c1ccccc1`, the AC50 (Cytochrome P450 3A4) was 20 µM (inconclusive).

For `COC(=O)c1cccc(C23CC4(C2)[C@H](CN(Cc2ccc(C(F)(F)F)cc2)[C@@H]4c2ccccc2)C3c2ccc(C(F)(F)F)cc2)c1` (stereo partly specified), the AC50 (Cytochrome P450 3A4) was 12.6 µM (inconclusive).

For `COC(=O)c1ccc(=O)n(-c2ccc(OC)cc2)c1`, the EC50 [1] was > 112 µM (not active) and the EC50 [2] was > 112 µM (not active).

In the case of `COc1ccc(N2CCN(c3ccc(C(=O)O)cc3[N+](=O)[O-])CC2)cc1`, the AC50 [3] is reported as 5.03 µM (active).

With `Cc1ccccc1C(=O)NN1CC(C(=O)OCc2ccc(Cl)c(Cl)c2)CC1=O` (stereo unspecified) the IC50 (cells) was 22.2 µM (active).

In the case of `COc1cc(CN2CCNC(=O)C2CC(=O)NCCCN2CCOCC2)cc(OC)c1` (stereo unspecified), the EC50 [1] is reported as > 112 µM (not active) and the EC50 [2] is reported as > 112 µM (not active).

For `COC(=O)[C@@H]1C[C@H]2CC[C@H](O)C[C@H]2N1Cc1ccc(N2CCOCC2)cc1`, the AC50 (Cytochrome P450 3A4) was 20 µM (inconclusive).

In the case of `CCCC(=O)Nc1ccc(-c2csc(NNC(C)=O)n2)cc1`, the AC50 [3] is reported as 0.859 µM (active).

In the case of `CCN(CC(=O)Nc1ccccc1C(F)(F)F)C(=O)CCc1c(C)nc(O)c(C#N)c1C`, the EC50 [1] is reported as > 112 µM (not active) and the EC50 [2] is reported as 2.71 µM (active).

With `Cc1c(N)cccc1N` the AC50 (Cytochrome P450 3A4) was 15.8 µM (inconclusive).

With `Cc1nc2sc(C(c3ccccc3)N3CCN(c4ccccc4F)CC3)c(O)n2n1` (stereo unspecified) the EC50 [1] was > 112 µM (not active) and the EC50 [2] was > 112 µM (not active).

For `CCCCN(C)CCCNC(=O)c1cc(-c2cccs2)nc2ccccc12`, the EC50 [4] was 0.183 µM (active), the EC50 [5] was > 60 µM (not active) and the IC50 [6] was > 20 µM (inactive).

For `CCC(C)Nc1nc2c(c(=O)n(C)c(=O)n2C)n1Cc1ccc(F)cc1` (stereo unspecified), the AC50 [3] was 2.09 µM (active).

For `CC1=CC2=NC(=O)/C(=C\c3ccc(OC(=O)c4ccco4)cc3)C(=N)N2O1`, the IC50 (cells) was 21.8 µM (active).

With `CCC(C)[C@H]1CN=C(N)N1CCc1cc(C(F)(F)F)cc(C(F)(F)F)c1` (stereo partly specified) the IC50 [6] was > 20 µM (inactive).

For `C#CCOCCOCCOCCNc1nc(N2CCN(C(=O)[C@H](CCCCN)n3cc([C@@H](N)[C@H](C)CC)nn3)CC2)nc(N2CCN(C(=O)[C@H](CCC(=O)O)n3cc([C@@H](N)CCCCN)nn3)CC2)n1`, the IC50 [6] was > 20 µM (inactive).

In the case of `C[C@@H]1CCCCO[C@@H](CN(C)Cc2ccc(Cl)c(Cl)c2)[C@@H](C)CN([C@H](C)CO)C(=O)c2cc(NC(=O)CCC(F)(F)F)ccc2O1`, the AC50 [7] is reported as 3.1 µM (active).

In the case of `CN(C)c1ccc(/C(=N\O)c2ccccc2)cc1`, the AC50 [3] is reported as 1.64 µM (active), the IC50 [8] is reported as > 47.1 µM (inactive) and the EC50 [9] is reported as > 53 µM (inactive).

For `C[C@@H]1CN([C@@H](C)CO)C(=O)c2cccc(NS(=O)(=O)c3ccccc3)c2O[C@H]1CN(C)Cc1ccc(-c2ccccc2)cc1`, the AC50 [7] was 1.39 µM (active).

With `C[C@H](CO)N1C[C@H](C)[C@H](CN(C)Cc2ccc(C(F)(F)F)cc2)Oc2ccc(NS(=O)(=O)c3ccc(Cl)cc3)cc2C1=O` the AC50 [7] was 4.5 µM (active).

For `C[C@@H]1CN([C@@H](C)CO)C(=O)c2cccc(NC(=O)Nc3ccc(C(F)(F)F)cc3)c2O[C@H]1CN(C)C(=O)Nc1ccc(C(F)(F)F)cc1`, the AC50 [7] was 6.06 µM (active).

For `C[C@@H]1CCCCO[C@H](CN(C)C(=O)Nc2ccc3c(c2)OCO3)[C@@H](C)CN([C@H](C)CO)C(=O)c2cc(NC(=O)Nc3ccc(C(F)(F)F)cc3)ccc2O1`, the AC50 [7] was 2.56 µM (active).

For `C[C@@H]1CCCCO[C@@H](CN(C)Cc2ccc(Cl)c(Cl)c2)[C@@H](C)CN([C@H](C)CO)C(=O)c2cc(NC(=O)Nc3ccc(C(F)(F)F)cc3)ccc2O1`, the AC50 [7] was 2.84 µM (active).

With `COc1ccc(S(=O)(=O)Nc2ccc3c(c2)CC(=O)N([C@H](C)CO)C[C@@H](C)[C@@H](CN(C)Cc2ccc(Cl)c(Cl)c2)O3)cc1` the AC50 [7] was 3.78 µM (active).

In the case of `C[C@H]1CN([C@@H](C)CO)C(=O)Cc2cc(NC(=O)NC3CCCCC3)ccc2O[C@@H]1CN(C)Cc1ccc(Cl)c(Cl)c1`, the AC50 [7] is reported as 7.18 µM (active).

For `C[C@@H]1CN([C@H](C)CO)C(=O)c2cc(NC(=O)Nc3cccc4ccccc34)ccc2O[C@@H]1CN(C)C(=O)Nc1cccc2ccccc12`, the AC50 [10] was 46.1 µM (active), the AC50 [11] was 49.7 µM (active) and the AC50 (Paired box protein Pax-8) was 6.15 µM (active).

For `COCC#Cc1ccc2c(c1)O[C@H](CN(C)S(=O)(=O)c1cccc(F)c1)[C@@H](C)CN([C@H](C)CO)S2(=O)=O`, the AC50 [12] was > 52 µM (inactive).

With `CCC(=O)N1CC2(C1)CN(C(=O)Nc1ccccc1F)[C@H](CO)c1[nH]c3cc(OC)ccc3c12` the AC50 [13] was 15.9 µM (active).

In the case of `COc1ccccc1S(=O)(=O)N(C)C[C@@H]1Oc2cc(C#CCC(C)C)ccc2S(=O)(=O)N([C@@H](C)CO)C[C@@H]1C`, the AC50 [13] is reported as 3.17 µM (active).

With `COc1ccc(NC(=O)N(C)C[C@@H]2Oc3cc(-c4ccc(C)cc4)ccc3S(=O)(=O)N([C@H](C)CO)C[C@H]2C)cc1` the AC50 [13] was 3.38 µM (active).

In the case of `Cc1cc(O)c(C=O)c2c1C(=O)Oc1c(C)c(O)c3c(c1O2)C(O)OC3=O` (stereo unspecified) [NORSTICTIC ACID], the AC50 (Cytochrome P450 3A4) is reported as 39.8 µM (inconclusive).
